Like-named read-outs stand apart in the source and are kept apart here.
Assays:
Format in all cases: cell-based, human
[1] = system: SK-MEL-5; experiment: NCI one-dose SRB assay (Melanoma)
Method: (§1) The structures of all the newly prepared pyridine-ureas 8a–n were submitted to the National Cancer Institute (NCI) Developmental Therapeutic Program. Eight compounds 8b, 8d, 8e, 8i, 8j and 8l–n were selected to be examined for their in vitro growth inhibitory activity. The anticancer assays were carried out according to the protocol of the Drug Evaluation Branch, NCI, Bethesda. The selected pyridine-ureas were tested at one dose primary anticancer assay against a panel of approximately 58 cancer lines (concentration 10^−5 M). The tested human cancer cell lines emerged from nine different cancer subtypes: leukemia, colon, melanoma, ovarian, lung, CNS, renal, breast and prostate cancers. The sulforhodamine B (SRB) protein assay was adopted to estimate the cell viability and growth. The results were reported as mean-graph of the percentage growth of the treated cells, and presented as percentage growth inhibition (GI%) caused by the test compounds (Table 2).
(§2) The anticancer assays were performed in accordance with the protocol of the Drug Evaluation Branch, NCI, Bethesda. A 48 h drug exposure protocol was used and sulforhodamine B (SRB) protein assay was applied to estimate the cell viability and growth, as reported earlier.

[2] = system: M14; experiment: NCI one-dose SRB assay (Melanoma)
Method: as §1, §2

[3] = system: LOX IMVI; experiment: NCI one-dose SRB assay (Melanoma)
Method: as §1, §2

[4] = system: SK-MEL-28; experiment: NCI one-dose SRB assay (Melanoma)
Method: as §1, §2

[5] = system: MDA-MB-435; experiment: NCI one-dose SRB assay (Melanoma)
Method: as §1, §2

[6] = system: MALME-3M; experiment: NCI one-dose SRB assay (Melanoma)
Method: as §1, §2

[7] = system: SK-MEL-2; experiment: NCI one-dose SRB assay (Melanoma)
Method: as §1, §2

[8] = system: UACC-62; experiment: NCI one-dose SRB assay (Melanoma)
Method: as §1, §2

[9] = system: breast cancer MCF-7 cell line; experiment: In vitro anti-proliferative activity, MTT assay; settings: Homo sapiens, MCF-7, MTT
Method: The in vitro anti-proliferative activity of the newly prepared pyridine-ureas 8a–n was examined against breast cancer MCF-7 cell line. The assay was carried out, as triplicates, utilizing the 3-(4,5-dimethylthiazol-2-yl)-2,5-diphenyltetrazolium bromide (MTT) colorimetric assay as described by T. Mosmann. Doxorubicin and Sorafenib were included in this assay as a reference drug.
MCF-7 (human breast cancer cell line) and WI-38 (human lung fibroblast cell line), were obtained from American Type Culture Collection (Manassas, VA, USA). The cells were propagated in DMEM and supplemented with 10% heat-inactivated FBS (Hyclone), 10 μg/mL of insulin (Manufacturer, Sigma, St. Louis, MO, USA), and 1% penicillin-streptomycin. MTT assay was utilized to examine the in vitro anti-proliferative activity of the newly prepared ureas following the reported procedures. […] The data presented are the mean of at least three separate experiments.

[10] = system: SR; experiment: NCI one-dose SRB assay (Leukemia)
Method: as §1, §2

[11] = system: CCRF-CEM; experiment: NCI one-dose SRB assay (Leukemia)
Method: as §1, §2

[12] = system: RPMI-8226; experiment: NCI one-dose SRB assay (Leukemia)
Method: as §1, §2

[13] = system: K-562; experiment: NCI one-dose SRB assay (Leukemia)
Method: as §1, §2

[14] = system: MOLT-4; experiment: NCI one-dose SRB assay (Leukemia)
Method: as §1, §2

[15] = system: HL-60(TB); experiment: NCI one-dose SRB assay (Leukemia)
Method: as §1, §2

[16] = system: HOP-62; experiment: NCI one-dose SRB assay (Non-Small Cell Lung Cancer)
Method: as §1, §2

[17] = system: NCI-H460; experiment: as above
Method: as §1, §2

[18] = system: EKVX; experiment: as above
Method: as §1, §2

[19] = system: NCI-H23; experiment: as above
Method: as §1, §2

[20] = system: A549/ATCC; experiment: as above
Method: as §1, §2

[21] = system: NCI-H322M; experiment: as above
Method: as §1, §2

[22] = system: NCI-H226; experiment: as above
Method: as §1, §2

[23] = system: HOP-92; experiment: as above
Method: as §1, §2

[24] = system: NCI-H522; experiment: as above
Method: as §1, §2

[25] = Homo sapiens, 10 μM, read-out: Percentage growth inhibition (GI%)

## COc1ccc(-c2ccc(NC(=O)Nc3ccc(Cl)cc3)c(C)n2)cc1 [Compound 8d, 1-(4-Chlorophenyl)-3-(6-(4-methoxyphenyl)-2-methylpyridin-3-yl) Urea]
[1]; Homo sapiens, SK-MEL-5, 10 μM, read-out: Percentage growth inhibition (GI%)
  inhibition at 10 µM: 13%
[1]; SK-MEL-5, 1.00E-5 Molar
  Growth Percent: 87.05%
[2]; Homo sapiens, M14, 10 μM, read-out: Percentage growth inhibition (GI%)
  inhibition at 10 µM: 14%
[2]; M14, 1.00E-5 Molar
  Growth Percent: 86.55%
[3]; 1.00E-5 Molar
  Growth Percent: 85.30%
[3]; [25]
  inhibition at 10 µM: 15%
[4]; Homo sapiens, SK-MEL-28, 10 μM, read-out: Percentage growth inhibition (GI%)
  inhibition at 10 µM: 11%
[4]; SK-MEL-28, 1.00E-5 Molar
  Growth Percent: 89.84%
[5]; Homo sapiens, MDA-MB-435, 10 μM, read-out: Percentage growth inhibition (GI%)
  inhibition at 10 µM: 12%
[5]; MDA-MB-435, 1.00E-5 Molar
  Growth Percent: 88.00%
[6]; 1.00E-5 Molar
  Growth Percent: 104.47%
[6]; [25]
  inhibition at 10 µM: < 10%
[7]; Homo sapiens, SK-MEL-2, 10 μM, read-out: Percentage growth inhibition (GI%)
  inhibition at 10 µM: < 10%
[7]; SK-MEL-2, 1.00E-5 Molar
  Growth Percent: 104.03%
[8]; Homo sapiens, UACC-62, 10 μM, read-out: Percentage growth inhibition (GI%)
  inhibition at 10 µM: 29%
[8]; UACC-62, 1.00E-5 Molar
  Growth Percent: 71.19%
[9]; MCF7, 48 h, 48 h of incubation, read-out: IC50 48 h
  IC50: 7.1 ± 0.38 µM
[9]; MCF7, 72 h, 72 h of incubation, read-out: IC50 72 h
  IC50: 5.14 ± 0.46 µM
[10]; 1.00E-5 Molar
  Growth Percent: 43.88%
[10]; [25]
  inhibition at 10 µM: 57%
[11]; 1.00E-5 Molar
  Growth Percent: 81.43%
[11]; [25]
  inhibition at 10 µM: 19%
[12]; Homo sapiens, RPMI-8226, 10 μM, read-out: Percentage growth inhibition (GI%)
  inhibition at 10 µM: 10%
[12]; RPMI-8226, 1.00E-5 Molar
  Growth Percent: 90.15%
[13]; Homo sapiens, K562, K-562, 10 μM, read-out: Percentage growth inhibition (GI%)
  inhibition at 10 µM: 16%
[13]; K-562, 1.00E-5 Molar
  Growth Percent: 84.35%
[14]; Homo sapiens, MOLT-4, 10 μM, read-out: Percentage growth inhibition (GI%)
  inhibition at 10 µM: 28%
[14]; MOLT-4, 1.00E-5 Molar
  Growth Percent: 72.42%
[15]; 1.00E-5 Molar
  Growth Percent: 79.74%
[15]; [25]
  inhibition at 10 µM: 21%
[16]; HOP-62, 1.00E-5 Molar
  Growth Percent: 81.25%
[16]; Homo sapiens, HOP-62, 10 μM, read-out: Percentage growth inhibition (GI%)
  inhibition at 10 µM: 19%
[17]; Homo sapiens, NCI-H460, 10 μM, read-out: Percentage growth inhibition (GI%)
  inhibition at 10 µM: 36%
[17]; NCI-H460, 1.00E-5 Molar
  Growth Percent: 64.55%
[18]; 1.00E-5 Molar
  Growth Percent: 92.90%
[18]; [25]
  inhibition at 10 µM: < 10%
[19]; Homo sapiens, NCI-H23, 10 μM, read-out: Percentage growth inhibition (GI%)
  inhibition at 10 µM: < 10%
[19]; NCI-H23, 1.00E-5 Molar
  Growth Percent: 94.08%
[20]; 1.00E-5 Molar
  Growth Percent: 68.26%
[20]; [25]
  inhibition at 10 µM: 32%
[21]; 1.00E-5 Molar
  Growth Percent: 65.27%
[21]; [25]
  inhibition at 10 µM: 35%
[22]; Homo sapiens, NCI-H226, 10 μM, read-out: Percentage growth inhibition (GI%)
  inhibition at 10 µM: < 10%
[22]; NCI-H226, 1.00E-5 Molar
  Growth Percent: 97.81%
[23]; HOP-92, 1.00E-5 Molar
  Growth Percent: 81.02%
[23]; Homo sapiens, HOP-92, 10 μM, read-out: Percentage growth inhibition (GI%)
  inhibition at 10 µM: 19%
[24]; Homo sapiens, NCI-H522, 10 μM, read-out: Percentage growth inhibition (GI%)
  inhibition at 10 µM: 33%
[24]; NCI-H522, 1.00E-5 Molar
  Growth Percent: 67.47%
